Like-named read-outs stand apart in the source and are kept apart here.
Experiments:
[1] = cited from earlier work
[2] = STORM trial, subjects that had metabolic syndrome at study entry; format: in vivo, human; conditions: change from baseline to latest assessment after month 6 up to month 12
Source text: (§1) The benefits of sibutramine therapy can be extended to subjects with metabolic syndrome. The treatment effect of sibutramine on subjects that had metabolic syndrome at study entry in the STORM trial and by a pooled analysis of double-blind, placebo-controlled, non-diabetic studies of at least 6 months duration were studied. Subjects were identified who had increased abdominal obesity (waist circumference), decreased HDL cholesterol, and elevated triglycerides (TG) at baseline, and who also completed at least 6 months of sibutramine treatment (pooled analysis subjects: 266 sibutramine, 134 placebo; STORM: 80 sibutramine). Since all subjects in the STORM trial received sibutramine for the first 6 months of the study, only subjects subsequently randomized to receive sibutramine for a longer duration were included. The analyses for each variable were based on change from baseline to latest assessment after month 6, up to and including month 12.

[3] = Pooled analysis of double-blind, placebo-controlled, non-diabetic studies of at least 6 months in subjects with metabolic syndrome at baseline; format: in vivo, human; conditions: change from baseline to latest assessment after month 6 up to month 12; compared to placebo
Source text: as §1

[4] = compared to placebo; cited from earlier work
[5] = subjects who lost and maintained weight, compared to baseline values of all subjects

## CC(C)CC(N(C)C)C1(c2ccc(Cl)cc2)CCC1 (centres unmarked) [sibutramine, N,N-dimethyl-1-[1-(4-chlorophenyl)cyclobutyl]-3-methylbutylamine]
[1]; at two years, subjects who completed the trial, placebo 16%
  subjects who maintained at least 80% of their month six weight loss: 43%
[1]; at two years
  mean fasting insulin levels: reduced
[1]; end of two years of treatment, placebo 21%
  subjects who maintained ≧10% weight reduction: 46%
[1]; end of two years of treatment, placebo 44%
  subjects who maintained ≧5% weight reduction: 69%
[1]; first six months of sibutramine treatment
  mean weight loss: 26 lbs
[1]; of the 499 subjects who completed the first six months, sibutramine with reduced calorie diet and increased physical activity
  subjects who achieved a ≧5% weight reduction: 94%
[1]; [5]
  HDL cholesterol: clinically and statistically significant improvements
  triglycerides: clinically and statistically significant improvements
  waist circumference: clinically and statistically significant improvements
[1]; subjects who lost and maintained weight
  impaired fasting glucose: significantly changed
[2]
  HDL: favorable changes
  TG: favorable changes
  waist circumference: favorable changes
  weight loss: favorable changes
[3]
  HDL: clinically and statistically significant improvements
  TG: clinically and statistically significant improvements
  waist circumference: clinically and statistically significant improvements
  weight loss: clinically and statistically significant improvements
[4]
  HDL cholesterol: significant improvements
  fasting blood glucose levels: not significantly changed
  insulin levels: significant improvements
  triglyceride levels: significant improvements
  waist circumference (a measure for abdominal obesity): significant improvements
